Measured values from patent publication EP0407583A1, “DERIVATIVES OF DICHLOR[…] ACYLAMIDO[…] AND INSECTICIDAL, FU[…] HEMATOCIDAL PREPARATIONS BASED ON THEM” (priority 1989, dated 1990).

Experiments:
[1] = Toxicity LD50 of the compound; assay type: in vivo; conditions: species and route not given
[2] = Solubility (qualitative); conditions: water, alcohols, acetone
[3] = test system: Candida albicans; assay: Fungicidal activity, large-scale test on contaminated surfaces and fabrics; assay type: cell-based; conditions: composition 0.01 % by mass; surfaces of ceramics, metal, wood, rubber, fabrics
Description: (§1) The large-scale tests were carried out by using Candida albicans and Candida tropicalis strains 2-day culture of which was diluted with an isotonic solution of sodium chloride to the concentration of 5x10^7 cells in 1 ml.
(§2) The suspended cell culture was applied onto the surface (7 mm in diameter) of articles made of ceramics, metal, wood and rubber as well as cotton, flannel woollen fabrics which were presterillized.
(§3) In a day after incubating from the treated surfaces, the washings were taken with a cotton-gauze tampon wetted with Sabouraud^ts liquid medium, immersed into the tubes with a similar medium and placed into a thermostat at 37 °C for two days. Thereafter, the inoculum was introduced in Sabouraud's stiff agar, and the growth records were made by a conventional procedure.

[4] = test system: Candida tropicalis; assay: as above; assay type: cell-based; conditions: composition 0.01 % by mass; surfaces of ceramics, metal, wood, rubber, fabrics
Description: as §1, §2, §3

[5] = test system: Candida tropicalis; assay: Fungicidal activity, laboratory test on Sabouraud medium; assay type: cell-based; conditions: composition 0.01 % by mass in distilled water
Description: A fungicidal composition based on this compound was prepared which was a solution of it in distilled water at the concentration pf 0.01 % by mass. A fungicidal activity of the composition, according to the invention, was tested in laboratory conditions for inhibiting the growth of fungi such as Candida tropicalis affecting the macosal and skin coats, and internals.
To this, the Petri dishes containing the Sabouraud growth medium were inoculated with a suspension of microorganisms at the concentration of 5x10^7 cells of fungi in 1 ml.
The restricted surface areas (7 mm in diameter) were coated with the composition by means of a small metal spatula 4x4 mm in size. In a day of incubating at 37 °C in a thermostat, the composition inhibited the growth of yeast--like fungi. An antifungal activity of the composition was specified by a method of 10-fold serial dilution using Sabouraud's liquid medium in 2 ml of which 2x10^5 cells were introduced. After two days of incubation in the thermostat at 34 °C, a minimum dilution of the substance exerting a fungicidal effect was determined.

[6] = test system: Candida albicans; assay: as above; assay type: cell-based; conditions: composition 0.01 % by mass in distilled water
[7] = test system: Rhoma betae; assay: Inhibition of phytopathogenic fungi, field test on affected potato plants; assay type: in vivo; conditions: 5 m^2 plots of affected potato plants sprayed
How it was run: (§4)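 Comparison was against known compositions sprayed onto similar plots. Treatment consisted of spraying the test fungicide onto 5 m^2 field plots of diseased potato plants.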

[8] = test system: Penicillium cyclopium; assay: as above; assay type: in vivo; conditions: 5 m^2 plots of affected potato plants sprayed
How it was run: as §4

[9] = test system: Fusarium oxysporum; assay: as above; assay type: in vivo; conditions: 5 m^2 plots of affected potato plants sprayed
How it was run: as §4

[10] = test system: Alternaria sobani; assay: as above; assay type: in vivo; conditions: 5 m^2 plots of affected potato plants sprayed
How it was run: as §4

[11] = test system: Diplodia zeae; assay: as above; assay type: in vivo; conditions: 5 m^2 plots of affected potato plants sprayed
How it was run: as §4

[12] = test system: Fusarium moniliforme; assay: as above; assay type: in vivo; conditions: 5 m^2 plots of affected potato plants sprayed
How it was run: as §4

[13] = test system: Botrytis allii; assay: as above; assay type: in vivo; conditions: 5 m^2 plots of affected potato plants sprayed
How it was run: as §4

[14] = test system: Rhyzoctonia violaceae; assay: as above; assay type: in vivo; conditions: 5 m^2 plots of affected potato plants sprayed
How it was run: as §4

[15] = test system: Botrytis cinereae; assay: as above; assay type: in vivo; conditions: 5 m^2 plots of affected potato plants sprayed
How it was run: as §4

[16] = test system: Aspergillus niger; assay: as above; assay type: in vivo; conditions: 5 m^2 plots of affected potato plants sprayed
How it was run: as §4

[17] = test system: Rhyzoctonia aderholdii; assay: as above; assay type: in vivo; conditions: 5 m^2 plots of affected potato plants sprayed
How it was run: as §4

[18] = test system: Fusarium culmorum; assay: as above; assay type: in vivo; conditions: 5 m^2 plots of affected potato plants sprayed
How it was run: as §4

[19] = test system: Verticillium albo-atrum; assay: as above; assay type: in vivo; conditions: 5 m^2 plots of affected potato plants sprayed
How it was run: as §4

[20] = test system: Venturia inaequalis; assay: as above; assay type: in vivo; conditions: 5 m^2 plots of affected potato plants sprayed
How it was run: as §4

[21] = test system: Aspergillus fumigatis; assay: as above; assay type: in vivo; conditions: 5 m^2 plots of affected potato plants sprayed
How it was run: as §4

[22] = test system: Rhoma betae; assay: Inhibition of phytopathogenic fungi growth, laboratory test on potato-dextrose agar; assay type: cell-based; conditions: active principle 0.01 % by mass in potato-dextrose agar
How it was run: (§5)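 First, a 0.01% solution in distilled water was prepared. It was then mixed into potato-dextrose agar to give 0.01% by mass of active principle. Finally, plates were inoculated with mycelium and vegetative growth compared with untreated plates.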

[23] = test system: Penicillium cyclopium; assay: as above; assay type: cell-based; conditions: active principle 0.01 % by mass in potato-dextrose agar
How it was run: as §5

[24] = test system: Fusarium oxysporum; assay: as above; assay type: cell-based; conditions: active principle 0.01 % by mass in potato-dextrose agar
How it was run: as §5

[25] = test system: Alternaria sobani; assay: as above; assay type: cell-based; conditions: active principle 0.01 % by mass in potato-dextrose agar
How it was run: as §5

[26] = test system: Diplodia zeae; assay: as above; assay type: cell-based; conditions: active principle 0.01 % by mass in potato-dextrose agar
How it was run: as §5

[27] = test system: Fusarium moniliforme; assay: as above; assay type: cell-based; conditions: active principle 0.01 % by mass in potato-dextrose agar
How it was run: as §5

[28] = test system: Botrytis allii; assay: as above; assay type: cell-based; conditions: active principle 0.01 % by mass in potato-dextrose agar
How it was run: as §5

[29] = test system: Rhyzoctonia violaceae; assay: as above; assay type: cell-based; conditions: active principle 0.01 % by mass in potato-dextrose agar
How it was run: as §5

[30] = test system: Botrytis cinereae; assay: as above; assay type: cell-based; conditions: active principle 0.01 % by mass in potato-dextrose agar
How it was run: as §5

[31] = test system: Aspergillus niger; assay: as above; assay type: cell-based; conditions: active principle 0.01 % by mass in potato-dextrose agar
How it was run: as §5

[32] = test system: Rhyzoctonia aderholdii; assay: as above; assay type: cell-based; conditions: active principle 0.01 % by mass in potato-dextrose agar
How it was run: as §5

[33] = test system: Fusarium culmorum; assay: as above; assay type: cell-based; conditions: active principle 0.01 % by mass in potato-dextrose agar
How it was run: as §5

[34] = test system: Verticillium albo-atrum; assay: as above; assay type: cell-based; conditions: active principle 0.01 % by mass in potato-dextrose agar
How it was run: as §5

[35] = test system: Venturia inaequalis; assay: as above; assay type: cell-based; conditions: active principle 0.01 % by mass in potato-dextrose agar
How it was run: as §5

[36] = test system: Aspergillus fumigatis; assay: as above; assay type: cell-based; conditions: active principle 0.01 % by mass in potato-dextrose agar
How it was run: as §5

[37] = test system: invasion larvae of gall nematodes; assay: Nematocidal effect on invasion larvae, experimental (object glass) test; assay type: in vivo; conditions: 1% solution in distilled water; 100 invasion larvae; 24 hours
Description: A nematocidal effect of the composition, according to the invention, was tested on invasion larvae of gall nematodes. To this end, 1 droplet of a suspension containing 100 invasion larvae of gall nematodes was placed onto the object glasses with cells. 1 droplet of the composition of the invention was added thereinto. 1 drop of distilled water was added to the control cell instead of the composition, according to the invention. The glasses with test and control cells were placed onto Petri dish with a moisten ashless filter, and 24 hours later the killed nematodes were recorded. The tests were 3-fold repeated. The study of a nematocidal activity was conducted in comparison with a known nematocidal composition based on 0,0-dimethyl-0-/2-(N,N'-diethylcarbamoyl)-1-methyl-2-chlorovinyl/ /phosphate.

[38] = test system: leaves of tomato and cucumber; assay: Phytotoxic effect on leaves; assay type: in vivo; conditions: nematocidal composition, 1% solution in distilled water
[39] = test system: gall nematodes; assay: Nematocidal effect, field test on affected tomato plants; assay type: in vivo; conditions: 5 m^2 plots of tomato plants affected by nematodes
Description: In the field conditions, the plots of 5 m^2 in size of tomato plants affected by nematodes were treated with the claimed nematocidal compositions and the known nematocides.

[40] = test system: mice and rats; conditions: for mice and rats; cited from earlier work

O=C(NP(=O)(Sc1ccc(Cl)cc1)Sc1ccc(Cl)cc1)C(Cl)(Cl)CCl [Example 9, di--para-chlorothiophenyl ether of α, α,β-trichloropropio- nylamidophosphoric acid]
LD50 [1]: 670 ml/k^g | solubility [2]: soluble in water, alcohols, acetone | Inhibition of growth of fungal colonies, % Candida albicans tests large-scale [3]: 100% | Inhibition of growth of fungal colonies, % Candida tropicalis tests large-scale [4]: 100% | Inhibition of growth of fungal colonies, % Candida tropicalis tests laboratory [5]: 100% | Inhibition of growth of fungal colonies, % Candida albicans tests laboratory [6]: 100%

O=C(NP(=O)(NNc1ccccc1)NNc1ccccc1)c1ccc(Cl)cc1 [Example 10, para--chlorobenzoylamidophosphoric acid diphenyl hydrazide]
solubility [2]: soluble in water, alcohols, acetone | Inhibition of growth of fungal colonies, % Candida albicans tests large-scale [3]: 100% | Inhibition of growth of fungal colonies, % Candida tropicalis tests large-scale [4]: 100% | Inhibition of growth of fungal colonies, % Candida tropicalis tests laboratory [5]: 0% | Inhibition of growth of fungal colonies, % Candida albicans tests laboratory [6]: 100%

O=C(NP(=O)(Nc1ccc(Cl)cc1[N+](=O)[O-])Nc1ccc(Cl)cc1[N+](=O)[O-])c1ccc(Br)cc1 [Example 16, para-bromobenzoylamidophosphoric acid di-para-chloro-ortho--nitroanilide]
solubility [2]: soluble in water, alcohols, acetone | Inhibition of growth of phytopathogenic fungi colonies, % Rhoma betae test field [7]: 99% | Inhibition of growth of phytopathogenic fungi colonies, % Penicillium cyclopium Tests field [8]: 79% | Inhibition of growth of phytopathogenic fungi colonies, % Fusarium oxysporum test field [9]: 97% | Inhibition of growth of phytopathogenic fungi colonies, % Alternaria sobani test field [10]: 98% | Inhibition of growth of phytopathogenic fungi colonies, % Diplodia zeae test field [11]: 100% | Inhibition of growth of phytopathogenic fungi colonies, % Fusatium monili-forme test field [12]: 73% | Inhibition of growth of phytopathogenic fungi colonies, % Botrytis allii test field [13]: 100% | Inhibition of growth of phytopathogenic fungi colonies, % Rhyzoctonia violaceae test field [14]: 86% | Inhibition of growth of phytopathogenic fungi colonies, % Botrytis cinereae test field [15]: 100% | Inhibition of growth of phytopathogenic fungi colonies, % Aspergillus niger test field [16]: 100% | Inhibition of growth of phytopathogenic fungi colonies, % Rhyzoctonia aderholdii test field [17]: 100% | Inhibition of growth of phytopathogenic fungi colonies, % Fusarium culmorum Tests field [18]: 99% | Inhibition of growth of phytopathogenic fungi colonies, % Verticillium albo--atrum test field [19]: 100% | Inhibition of growth of phytopathogenic fungi colonies, % Venturia inaequalis test field [20]: 100% | Inhibition of growth of phytopathogenic fungi colonies, % Aspergillus fumigatis Tests field [21]: 91% | Inhibition of growth of phytopathogenic fungi colonies, % Rhoma betae test laboratory [22]: 100% | Inhibition of growth of phytopathogenic fungi colonies, % Penicillium cyclopium Tests laboratory [23]: 80% | Inhibition of growth of phytopathogenic fungi colonies, % Fusarium oxysporum test laboratory [24]: 98% | Inhibition of growth of phytopathogenic fungi colonies, % Alternaria sobani test laboratory [25]: 100% | Inhibition of growth of phytopathogenic fungi colonies, % Diplodia zeae test laboratory [26]: 100% | Inhibition of growth of phytopathogenic fungi colonies, % Fusatium monili-forme test laboratory [27]: 74% | Inhibition of growth of phytopathogenic fungi colonies, % Botrytis allii test laboratory [28]: 100% | Inhibition of growth of phytopathogenic fungi colonies, % Rhyzoctonia violaceae test laboratory [29]: 87% | Inhibition of growth of phytopathogenic fungi colonies, % Botrytis cinereae test laboratory [30]: 100% | Inhibition of growth of phytopathogenic fungi colonies, % Aspergillus niger test laboratory [31]: 100% | Inhibition of growth of phytopathogenic fungi colonies, % Rhyzoctonia aderholdii test laboratory [32]: 100% | Inhibition of growth of phytopathogenic fungi colonies, % Fusarium culmorum Tests laboratory [33]: 100% | Inhibition of growth of phytopathogenic fungi colonies, % Verticillium albo--atrum test laboratory [34]: 100% | Inhibition of growth of phytopathogenic fungi colonies, % Venturia inaequalis test laboratory [35]: 100% | Inhibition of growth of phytopathogenic fungi colonies, % Aspergillus fumigatis Tests laboratory [36]: 92%

O=C(NP(=O)(Nc1ccccc1Cl)Nc1ccccc1Cl)c1ccc(Br)cc1 [Example 17, para-bromobenzoylamidophosphoric acid di-ortho-chloroanilide]
solubility [2]: soluble in water, alcohols, acetone | Death of larvae, %, conditions experimental [37]: 100% | phytotoxical effect on leaves of tomato and cucumber [38]: no phytotoxical effect | Death of larvae, %, conditions field [39]: 100%

O=C(NP(=O)(Nc1ccc(Cl)cc1)Nc1ccc(Cl)cc1)c1ccc(Br)cc1 [Example 18, para-bromobenzoylamidophosphoric acid di-para-chloroanilide]
solubility [2]: soluble in water, alcohols, acetone | Death of larvae, %, conditions experimental [37]: 89% | Death of larvae, %, conditions field [39]: 92%

COP(=O)(OC)C(O)C(Cl)(Cl)Cl (centres unmarked) [Known composition, 0,0-dimethyl(1-hydroxy-2,2,2-trichloroethyl)phosphonate]
LD50 [40]: 225 to 1200 mg/kg
